In patent publication US20250268849A1, “TREATMENT OF LOW-GRADE GLIOMA WITH MIRDAMETINIB” (St. Jude Children’s Research Hospital, Inc., priority 2022, published 2025):

Tested on: Low-Grade Glioma (LGG)
Experiment: Phase I/II trial of single agent mirdametinib in patients with low-grade glioma
Format: in vivo, human
Description: Example 1: Phase I/II Evaluation of Single Agent Mirdametinib, a Brain-Penetrant MEK1/2 Inhibitor, for the Treatment of Children, Adolescents, and Young Adults With Low-Grade Glioma (LGG) A multi-arm phase I/II trial of mirdametinib is currently being conducted in patients ≥2 and <25 years with LGG. Phase I requires participants have no prior exposure to MEK inhibitors and recurrent/progressive disease with biopsy-proven evidence of MAPK pathway activation. Three escalating dose levels (2 mg/m^2/dose BID, 2.5 mg/m^2/dose BID and 3 mg/m^2/dose BID) are planned using a rolling 6 design. The median age enrolled in the study is 10 years (3-21 years old). 10 patients have somatic gene rearrangements (7 BRAF, 1 MYB, 1 RAF1, 1 FGFR1); 1 patient has a NF1 germline mutation; and 3 patients have metastatic disease. […] Of the 11 patients having a somatic gene rearrangement or NF1, 4 patients with BRAF and the 1 patient with FGFR1 received a dose of 2 mg/m^2 BID. The remainder of the 11 patients (3 BRAF, 1 MYB, 1 NF1, and 1 RAF1) received a dose of 2.5 mg/m^2 BID.

O=C(NOC[C@H](O)CO)c1ccc(F)c(F)c1Nc1ccc(I)cc1F (single isomer, unassigned) [mirdametinib]
Minor Response (MR), patients (decrease by 25-50%) (2 mg/m^2 BID (N = 5)): 4 (80.0%)
Partial Response (PR), patients (decrease in tumor size by 50-75%) (2 mg/m^2 BID (N = 5), patients with somatic gene rearrangement or NF1, as of cut-off date): 1 (20.0%)
Minor Response (MR), patients (decrease by 25-50%) (2.5 mg/m^2 BID (N = 6)): 3 (50.0%)
Stable Disease (SD), patients (stable tumor size or decrease up to 25%) (2.5 mg/m^2 BID (N = 6)): 3 (50.0%)
Minor Response (MR), patients (decrease by 25-50%) (Total (N = 11)): 7 (63.6%)
Stable Disease (SD), patients (stable tumor size or decrease up to 25%) (Total (N = 11)): 3 (27.3%)
Partial Response (PR), patients (decrease in tumor size by 50-75%) (Total (N = 11), 2 and 2.5 mg/m^2 BID pooled): 1 (9.1%)
dose-limiting toxicities (dose level 1 (2 mg/m^2)): No dose-limiting toxicities occurred
tolerability (dosed continuously, recurrent/progressive pediatric LGG): well-tolerated
patients with minor response (>25%-<50% decrease) (patients who completed at least one follow-up disease evaluation): Four of the six patients
MEK related retinopathy or cardiopathy (phase I): No MEK related retinopathy or cardiopathy has been observed
disease progressions (phase I): No disease progressions have occurred
treatment-related adverse events, grade (phase I, dose levels 1 and 2): Only grade 1 and 2
